Laboratory results taken from ChEMBL document CHEMBL3868594, “From lead optimization to NDA approval for a new antimicrobial: Use of pre-clinical effect models and pharmacokinetic/pharmacodynamic mathematical modeling” (2016).

Legend:
Type in all cases: functional
[1] = system: Mycobacterium tuberculosis; assay: Antibacterial activity against linezolid-resistant Mycobacterium tuberculosis H37Rv in hollow-fiber infection model assessed as reduction in bacterial burden at 858 mg, po at 24 hrs dose regimen measured after 3 weeks
[2] = system: Mycobacterium tuberculosis; assay: Antibacterial activity against linezolid-resistant Mycobacterium tuberculosis H37Rv in hollow-fiber infection model assessed as reduction in bacterial burden at 1116 mg, po at 24 hrs dose regimen measured after 3 weeks
[3] = system: Mycobacterium tuberculosis; assay: Antibacterial activity against linezolid-resistant Mycobacterium tuberculosis H37Rv in hollow-fiber infection model assessed as reduction in bacterial burden at 342 mg, po at 24 hrs dose regimen measured after 3 weeks
[4] = system: Mycobacterium tuberculosis; assay: Antibacterial activity against linezolid-resistant Mycobacterium tuberculosis H37Rv in hollow-fiber infection model assessed as reduction in bacterial burden at 600 mg, po at 24 hrs dose regimen measured after 3 weeks

CC(=O)NC[C@H]1CN(c2ccc(N3CCOCC3)c(F)c2)C(=O)O1 [LINEZOLID]
Activity [1]: 3 log10CFU/ml | Activity [2]: 3 log10CFU/ml | Activity [3]: 0.5 log10CFU/ml | Activity [4]: 1.7 log10CFU/ml
